Results taken from patent US20110117165A1, “IMPLANTABLE BONE GRAFT MATERIALS” (AFFINERGY, INC., priority 2009, published 2011).
Ends that are not written are not given here. MP = mini-PEG unit; Mpa = O=C(O)CCS

Experiments:
BMP-5 = target: T1, BMP-5 (Homo sapiens, UniProt P22003); experiment: Binding of immobilized BMP binding peptides to BMP-5 (ELISA); settings: BMP at 100 nM and 10 nM
T1 sequence (P22003 317-454): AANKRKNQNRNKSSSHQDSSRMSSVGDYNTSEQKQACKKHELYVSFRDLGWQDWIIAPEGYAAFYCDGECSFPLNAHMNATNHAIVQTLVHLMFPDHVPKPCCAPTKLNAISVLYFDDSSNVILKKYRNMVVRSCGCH
Procedure: (§1) BMP binding peptides SEQ ID NOs:1-4 & 8-10 were identified as described in US Patent Application Publication No. US20060051395A1. Briefly, the peptides were identified by phage display using immobilized BMP-2 as a substrate for the phage library selections. Synthetic peptides SEQ ID NOs: 1-2 were determined to bind to BMP-2 with a relative EC50 value of 0.8 nM and 0.9 nM, respectively (data not shown). Separately, the relative binding affinity of peptides SEQ ID NOs: 1-2 for BMP-2 is shown in FIG. 14A (SEQ ID NO: 1 is denoted as P9 and SEQ ID NO: 2 is denoted as P10). Briefly, the results shown in FIG. 14A were generated by immobilizing biotinylated BMP binding peptides SEQ ID NOs:1 & 2 on streptavidin coated plates. Serial dilutions of 200 nM, 20 nM and 2 nM of BMP-2 were incubated with the immobilized BMP binding peptides for 45 minutes, washed, and bound BMP quantified using ELISA.
(§2) BMP binding peptides SEQ ID NOs: 5-7 were identified as described in US Patent Application Publication No. US20090098175A1. Briefly, the peptides were identified by phage display using immobilized GDF-7 (GDF-7 is BMP-12) as a substrate for the phage library selections. […] The data shown in FIG. 14C were collected similarly to that described above for FIGS. 14A-14B except that the serial dilutions of BMP were 100 nM and 10 nM.

BMP-2 [1] = target: T2, BMP-2 (Homo sapiens, UniProt P12643); experiment: Binding of immobilized biotinylated BMP binding peptides to BMP-2 (ELISA); settings: BMP-2 at 200, 20 and 2 nM, 45 minutes
T2 sequence (P12643 283-396): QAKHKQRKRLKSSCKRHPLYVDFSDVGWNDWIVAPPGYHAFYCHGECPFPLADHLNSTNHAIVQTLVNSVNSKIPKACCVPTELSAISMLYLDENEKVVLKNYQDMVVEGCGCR
Procedure: as §1

BMP-7 = target: T3, BMP-7 (Homo sapiens, UniProt P18075); experiment: Binding of immobilized BMP binding peptides to BMP-7 (ELISA)
T3 sequence (P18075 293-431): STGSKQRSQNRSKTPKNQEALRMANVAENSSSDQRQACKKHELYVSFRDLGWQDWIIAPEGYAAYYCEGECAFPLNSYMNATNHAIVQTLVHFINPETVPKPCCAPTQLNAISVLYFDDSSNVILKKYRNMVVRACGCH

BMP-6 = target: T4, BMP-6 (Homo sapiens, UniProt P22004); experiment: Binding of immobilized BMP binding peptides to BMP-6 (ELISA); settings: BMP at 100 nM and 10 nM
T4 sequence (P22004 375-513): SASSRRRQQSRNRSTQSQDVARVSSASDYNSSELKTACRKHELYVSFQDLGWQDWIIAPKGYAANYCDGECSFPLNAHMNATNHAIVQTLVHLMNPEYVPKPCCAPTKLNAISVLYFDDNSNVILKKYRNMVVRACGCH
Procedure: as §1, §2

GDF-7 (BMP-12) = target: T5, GDF-7 (BMP-12) (Homo sapiens, UniProt Q7Z4P5); experiment: Binding to GDF-7 (phage display selection substrate)
T5 sequence (Q7Z4P5 322-450): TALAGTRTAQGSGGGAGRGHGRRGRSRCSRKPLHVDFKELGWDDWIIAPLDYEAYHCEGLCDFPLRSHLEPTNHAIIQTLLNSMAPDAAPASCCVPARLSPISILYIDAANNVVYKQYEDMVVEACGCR
Procedure: as §2

C2C12 cells = experiment: Alkaline phosphatase secretion by C2C12 cells in response to BMP-2; assay type: cell-based; settings: peptide 0-3500 nM, 3 days
Procedure: In an experiment to test the biological activity of BMP-2 delivered by BMP binding peptide, alkaline phosphatase secreted by C2C12 cells in response to BMP-2 was measured in the presence and absence of BMP binding peptide in solution. C2C12 cells were incubated with BMP-2 (35 nM) and BMP binding peptide at a concentration ranging from 0-3500 nM. The C2C12 cells were incubated with the BMP-2 and BMP binding peptide for 3 days and the alkaline phosphatase assay was performed as described herein above.

BMP-2 [2] = target: T6, BMP-2 (UniProt P12643 283-396); experiment: relative EC50 of synthetic peptide on BMP-2; format not described, data not shown
T6 construct: also called bone morphogenic protein 2

BMP-2 [3] = target: T6, BMP-2; experiment: relative EC50 of peptide on BMP-2; format not described, data not shown
BMP-2 [4] = target: T6, BMP-2; experiment: collagenase digest of sponge after 24 h in plasma, ELISA; data not shown
Procedure: The BMP binding peptide-modified […] collagen sponges generated in Example 2 were evaluated for ability to bind and retain BMP-2. […] The amount of BMP-2 released into the plasma at each time-point was measured by ELISA (QUANTIKINE, R&D SYSTEMS), and the amount retained on the sponge after 24 h was estimated by Western blot analysis. […] After 24 h, the sponges were digested by collagenase, and the amount of BMP-2 retained on the sponges was quantified by ELISA.

GGGAWEAFSSLSGSRV [SEQ ID NO: 1] was tested, and the “binding to BMP-5 (FIG. 14C)” value (BMP-5) was “bind”, the “relative binding affinity for BMP-2 (FIG. 14A)” value (BMP-2 [1]) was “high relative affinity” and the “relative binding affinity for BMP-7 (FIG. 14B)” value (BMP-7) was “high relative affinity”. The “binding to BMP-6 (FIG. 14C)” value (BMP-6) was “bind”.

In the case of SSGPREIWDSLVGVVNPGWSR [SEQ ID NO: 5], the “binding to BMP-5 (FIG. 14C)” value (BMP-5) is reported as “bind”, the “binding to BMP-6 (FIG. 14C)” value (BMP-6) is reported as “bind” and the “binding to GDF-7” value (GDF-7 (BMP-12)) is reported as “binding GDF-7”.

SSGGVGGWALFETLRGKEVSR [SEQ ID NO: 6] was tested, and the “binding to BMP-5 (FIG. 14C)” value (BMP-5) was “bind”, the “binding to BMP-6 (FIG. 14C)” value (BMP-6) was “bind” and the “binding to GDF-7” value (GDF-7 (BMP-12)) was “binding GDF-7”.

For SSVAEWALRSWEGMRVGEASR [SEQ ID NO: 7], the “binding to BMP-5 (FIG. 14C)” value (BMP-5) was “bind”, the “binding to BMP-6 (FIG. 14C)” value (BMP-6) was “bind” and the “binding to GDF-7” value (GDF-7 (BMP-12)) was “binding GDF-7”.

In the case of “GGALGFPLKGEVVEGWA-NH2 (C-terminus assumed) [SEQ ID NO: 2]”, the “binding to BMP-5 (FIG. 14C)” value (BMP-5) is reported as “bind”, the “relative binding affinity for BMP-2 (FIG. 14A)” value (BMP-2 [1]) is reported as “high relative affinity” and the “effect on BMP-2 biological activity (alkaline phosphatase secretion)” value (C2C12 cells; BMP-2 35 nM) is reported as “does not interfere with the biological activity of BMP-2”. For the same molecule, the “BMP-2 activity of the peptide on its own” value (C2C12 cells) was “does not have BMP-2 activity on its own”, the “relative binding affinity for BMP-7 (FIG. 14B)” value (BMP-7) was “high relative affinity” and the “binding to BMP-6 (FIG. 14C)” value (BMP-6) was “bind”.

B1: BMP binding peptide SEQ ID NO: 2 (peptide)
peptide: GGALGFPLKGEVVEGWA
modifications: also: biotinylated, position not given here
notes: Synthetic peptide found by phage display on immobilized BMP-2; also called P10
B1 was tested, and the EC50 (BMP-2 [2]) was 0.9 nM.

B2: BMP binding peptide SEQ ID NO: 5 (peptide)
peptide: SSGPREIWDSLVGVVNPGWSR
modifications: also: biotinylated, position not given here
notes: Found by phage display on immobilized GDF-7; also called P11
For B2, the EC50 (BMP-2 [3]) was 2 nM.

B3: BMP binding peptide SEQ ID NO: 6 (peptide)
peptide: SSGGVGGWALFETLRGKEVSR
modifications: also: biotinylated for plate assay, position not given here
notes: Found by phage display on immobilized GDF-7; also called P12
Molecule B3 has an EC50 (BMP-2 [3]) of 1.8 nM.

B4: BMP binding peptide SEQ ID NO: 1 containing a free thiol group, covalently attached to HELISTAT collagen (peptide)
peptide: GGGAWEAFSSLSGSRV
modifications: also: free thiol group added, position and spacer not given here, attached to collagen through a disulfide
notes: also called Peptide2; Peptide 2
B4 was tested, and the “fold BMP-2 retained against unmodified sponge after 24 h” value (BMP-2 [4]) was > 40 fold.

B5: BMP binding peptide SEQ ID NO: 1 (peptide)
peptide: GGGAWEAFSSLSGSRV
modifications: also: biotinylated, position not given here
notes: Synthetic peptide found by phage display on immobilized BMP-2; also called P9
B5 gave an EC50 (BMP-2 [2]) of 0.8 nM.

B6: BMP binding peptide SEQ ID NO: 7 (peptide)
peptide: SSVAEWALRSWEGMRVGEASR
modifications: also: biotinylated for plate assay, position not given here
notes: Found by phage display on immobilized GDF-7; also called P13
In the case of B6, the EC50 (BMP-2 [3]) is reported as 1.1 nM.

For {Mpa-MP-MP}-GGALGFPLKGEVVEGWA-NH2 (also: attached to collagen through a disulfide, also called Peptide1) [HS-Propionyl-MP-MP-(SEQ ID NO: 2)-amide, covalently attached to collagen], the “fold BMP-2 retained against unmodified sponge after 24 h” value (BMP-2 [4]) was > 40 fold.
